In patent US20170015718A1, “PRO-APOPTOTIC RAS AND RAF PEPTIDES” (UNIVERSITE PIERRE ET MARIE CURIE (PARIS 6), priority 2013, published 2017):

Legend:
[1] = test system: colon cancer cell line HCT116; assay: Apoptosis of colon cancer cell line HCT116; assay type: cell-based; details: 12.5 μM for 72 h
Ras/Raf interaction = assay: In vitro competition of Ras/Raf interaction (immunoprecipitation from cell lysates, blot); assay type: binding, Human; details: 1.5 mM of peptides, 30 min, room temperature; FIGS. 2A, 2B
Method: FIGS. 2A and 2B show in vitro competition of Ras/Raf interaction. Cells were lysed for 20 min at 4° C. in lysis buffer (50 mM Tris (pH 8), 1% Nonidet P-40, 137 mM NaCl, 1 mM MgCl2, 1 mM CaCl2, 10% glycerol, and protease inhibitor mixture). Lysates (800 μg of protein) were immunoprecipitated with the appropriate Ab overnight at 4° C., and protein A-Sepharose was added for 1 h at 4° C. After washing with 1×TBST (20 mM Tris-HCl (pH 7.5), 150 mM NaCl, 0.05% Tween 20), the Ras/Raf interaction was competed using peptides Mut3DPT-Ras (A) or Mut3DPT-Raf+Mut3DPT-Raf2 (B) at a concentration of 1.5 mM for 30 min at room temperature. After a washing, immunoprecipitates were transferred to nitrocellulose and blotted with the corresponding Ab.
The Ras/Raf interaction was competed using peptides corresponding to the binding site of Ras to Raf and vice versa. Lysates from MDA-MB321 or BC52 cell lines were immunoprecipitated with anti-Ras or anti-Raf Ab, and protein A-Sepharose was added. The Ras/Raf interaction was competed with 1.5 mM of peptides (30 min, room temperature). After washing steps, immunoprecipitates were transferred to nitrocellulose and blotted with the corresponding Ab. Proteins were detected using the ECL system.

[2] = test system: primary tumor cells of chronic lymphocytic leukemia (CLL); assay: Apoptosis of primary tumor cells of chronic lymphocytic leukemia; assay type: cell-based
[3] = test system: K-Ras mutated cell line SW626; assay: Apoptosis by Annexin V-FITC staining, SW626; assay type: cell-based, Human; details: SW626, 100 μM for 24 h; FIG. 3C
Method: FIGS. 3A to 3D show effect of peptides on apoptosis. A) MDA-MB231 cell line (mutated K-Ras) was cultured in the presence of the identified peptides at a concentration of 100 μM for 24 h. Apoptosis was detected by Annexin V-FITC staining and analyzed by flow cytometry. B) MDA-MB231 cell line was cultured as above, but to a concentration of 10 or 25 μM peptides. Apoptosis was estimated by annexin V-FITC staining. C) The K-Ras mutated cell line SW626 was cultured and analyzed as in A. D) The wild type K-RAs cell line BC 227 was cultured and analyzed as in A.
Apoptotic cells were detected using Annexin-V (-FITC from BD biosciences) as described by the manufacturer. Briefly, the cells were washed in 1× binding buffer, centrifugated and then resuspended in 200 μl of 1× binding buffer containing Annexin V-FITC (0.1 μg/ml) and PI (0.5 μg/ml). After incubation at room temperature in the dark for 10 min, cells were analyzed by flow cytometry. Data acquired by FACSCalibur (BD biosciences) were analyzed with Cellquest Pro software.

| Sequence | apoptosis of HCT116 [1] | competition of the Ras/Raf interaction in vitro (Ras/Raf interaction) | effect on CLL B and non-B cells [2] | apoptotic effect [3] |
| --- | --- | --- | --- | --- |
| VKKKKIKAEIKIHEHKGKKARLDWNTDAAS (chimeric peptide) [Mut3DPT-Raf2] | cause apoptosis |  |  |  |
| VKKKKIKAEIKIKMSKDGKKKKKKSKTKCVIM (chimeric peptide) [Mut3DPT-Ras] |  | able to compete in vitro the interaction Ras/Raf | marked effect | lower level of apoptosis |
